Data: PubChem BioAssay AID248 (DTP/NCI, 2004)
Inconclusive results and toxic doses are left out. Cut-off read from the data, not from the text of the source: active = T/C of 150% or more; inactive = T/C below 125%.

Tested on: L1210 leukemia ip in BDF1 mice, survival T/C
Experiment: NCI In Vivo Anticancer Drug Screen. Data for tumor model L1210 Leukemia (intraperitoneal) in B6D2F1 (BDF1) mice
Settings: endpoint: mean survival time, higher = longer survival
Method in brief: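 Read-out is survival time, reported as the treated-group measurement over the vehicle-control measurement.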

[1] = dose: 100.0 mg/kg/injection, schedule: Q04DX003 (ip), vehicle: Klucel (hydroxypropylcellulose) (HPC)
[2] = dose: 200.0 mg/kg/injection, schedule: Q04DX003 (ip), vehicle: Klucel (hydroxypropylcellulose) (HPC)
[3] = dose: 400.0 mg/kg/injection, schedule: Q04DX003 (ip), vehicle: Klucel (hydroxypropylcellulose) (HPC)
[4] = dose: 100.0 mg/kg/injection, schedule: Q04DX003 (ip), vehicle: saline
[5] = dose: 200.0 mg/kg/injection, schedule: Q04DX003 (ip), vehicle: saline
[6] = dose: 400.0 mg/kg/injection, schedule: Q04DX003 (ip), vehicle: saline
[7] = dose: 100.0 mg/kg/injection, schedule: Q01DX001 (ip), vehicle: saline
[8] = dose: 200.0 mg/kg/injection, schedule: Q01DX001 (ip), vehicle: saline
[9] = dose: 400.0 mg/kg/injection, schedule: Q01DX001 (ip), vehicle: saline
[10] = dose: 100.0 mg/kg/injection, schedule: Q01DX009 (ip), vehicle: saline
[11] = dose: 200.0 mg/kg/injection, schedule: Q01DX009 (ip), vehicle: saline
[12] = dose: 400.0 mg/kg/injection, schedule: Q01DX009 (ip), vehicle: saline
[13] = dose: 100.0 mg/kg/injection, schedule: Q01DX009 (ip), vehicle: Klucel (hydroxypropylcellulose) (HPC)
[14] = dose: 200.0 mg/kg/injection, schedule: Q01DX009 (ip), vehicle: Klucel (hydroxypropylcellulose) (HPC)
[15] = dose: 400.0 mg/kg/injection, schedule: Q01DX009 (ip), vehicle: Klucel (hydroxypropylcellulose) (HPC)
[16] = dose: 50.0 mg/kg/injection, schedule: Q01DX009 (ip), vehicle: saline
[17] = dose: 75.0 mg/kg/injection, schedule: Q01DX001 (ip), vehicle: saline
[18] = dose: 150.0 mg/kg/injection, schedule: Q01DX001 (ip), vehicle: saline

Measured: T/C

C=C(Cl)CC1(C(=O)OCC)CCN(S(=O)(=O)c2ccc(C)cc2)c2ccccc2C1=O (centres undefined)
inactive: [1] 94 % of control | [2] 98 % of control | [3] 88 % of control

CC1(c2ccccc2)SC(C)(c2ccccc2)SC(c2ccccc2)(c2ccccc2)S1 (centres undefined)
inactive: dose: 100.0 mg/kg/injection, schedule: Q01DX001 (ip), vehicle: Klucel (hydroxypropylcellulose) (HPC) 100 % of control | dose: 200.0 mg/kg/injection, schedule: Q01DX001 (ip), vehicle: Klucel (hydroxypropylcellulose) (HPC) 98 % of control | dose: 400.0 mg/kg/injection, schedule: Q01DX001 (ip), vehicle: Klucel (hydroxypropylcellulose) (HPC) 91 % of control

CN1C(=O)CCC1=O
inactive: [4] 103 % of control | [5] 98 % of control | [6] 98 % of control

O=[N+]([O-])c1ccc2cccnc2c1
inactive: dose: 75.0 mg/kg/injection, schedule: Q01DX001 (ip), vehicle: carboxymethylcellulose (CMC) 106 % of control | dose: 150.0 mg/kg/injection, schedule: Q01DX001 (ip), vehicle: carboxymethylcellulose (CMC) 104 % of control | dose: 300.0 mg/kg/injection, schedule: Q01DX001 (ip), vehicle: carboxymethylcellulose (CMC) 101 % of control

Cc1ccccc1NC(=O)N(O)C1(C#N)CCCCC1
inactive: [7] 91 % of control | [8] 93 % of control | [9] 93 % of control

COC(=O)Cc1cn[nH]c1C(=O)OC
inactive: [10] 97 % of control | [1] 93 % of control | [11] 94 % of control | [2] 97 % of control | [12] 95 % of control | [3] 97 % of control

COC(=O)C(CCSC)NC(=O)C1CSC(C)(C)N1C=O (centres undefined)
inactive: [4] 97 % of control | [5] 97 % of control | [6] 101 % of control

CCOC(=O)C(=O)Cc1cnc2ccccc2n1
inactive: [13] 113 % of control | [1] 97 % of control | [14] 94 % of control | [2] 96 % of control | [15] 92 % of control | [3] 100 % of control

CN(C)C(=S)N=Nc1ccccc1
inactive: dose: 50.0 mg/kg/injection, schedule: Q01DX009 (ip), vehicle: saline with Tween-80 92 % of control | [16] 97 % of control | dose: 100.0 mg/kg/injection, schedule: Q01DX009 (ip), vehicle: saline with Tween-80 100 % of control | [10] 100 % of control | dose: 200.0 mg/kg/injection, schedule: Q01DX009 (ip), vehicle: saline with Tween-80 100 % of control | [11] 107 % of control

Cc1cc(Cl)ccc1NC(=O)c1ccccc1
inactive: [13] 98 % of control | [1] 103 % of control | [14] 105 % of control | [2] 92 % of control | [15] 96 % of control | [3] 97 % of control

CC(C)(SCc1ccccc1)C(N)C(=O)O (centres undefined)
inactive: [17] 104 % of control | [10] 91 % of control | [4] 105 % of control | [18] 98 % of control | [11] 98 % of control | [5] 102 % of control | [12] 91 % of control | [6] 97 % of control

Oc1ccccc1/C=N/c1nc2ccc(Cl)cc2s1.Oc1ccccc1/C=N/c1nc2ccc(Cl)cc2s1.[Zn]
inactive: [7] 90 % of control

CSCCC(N)C(=O)O (centres undefined)
inactive: dose: 40.0 mg/kg/injection, schedule: Q01DX009 (ip), vehicle: saline 96 % of control | dose: 80.0 mg/kg/injection, schedule: Q01DX009 (ip), vehicle: saline 107 % of control | dose: 100.0 mg/kg/injection, schedule: Q01DX001 (ip), vehicle: carboxymethylcellulose (CMC) 92 % of control | [1] 104 % of control | dose: 160.0 mg/kg/injection, schedule: Q01DX009 (ip), vehicle: saline 102 % of control | dose: 200.0 mg/kg/injection, schedule: Q01DX001 (ip), vehicle: carboxymethylcellulose (CMC) 95 % of control | [2] 98 % of control | dose: 320.0 mg/kg/injection, schedule: Q01DX009 (ip), vehicle: saline 98 % of control | dose: 400.0 mg/kg/injection, schedule: Q01DX001 (ip), vehicle: carboxymethylcellulose (CMC) 103 % of control | [3] 102 % of control

C1CC23CSCC12CSC3 (centres undefined)
inactive: [7] 103 % of control | [8] 111 % of control | [9] 108 % of control

CCN(CC)CCCC(C)Nc1ccnc2cc(C(F)(F)F)ccc12 (centres undefined)
inactive: dose: 5.0 mg/kg/injection, schedule: Q01DX001 (ip), vehicle: carboxymethylcellulose (CMC) 104 % of control | dose: 10.0 mg/kg/injection, schedule: Q01DX001 (ip), vehicle: carboxymethylcellulose (CMC) 106 % of control | dose: 20.0 mg/kg/injection, schedule: Q01DX001 (ip), vehicle: carboxymethylcellulose (CMC) 90 % of control | dose: 40.0 mg/kg/injection, schedule: Q01DX001 (ip), vehicle: carboxymethylcellulose (CMC) 104 % of control

CCC(=O)OC1(c2ccccc2)CCN(C)CC1C (centres undefined)
inactive: dose: 5.0 mg/kg/injection, schedule: Q01DX001 (ip), vehicle: saline 105 % of control | dose: 10.0 mg/kg/injection, schedule: Q01DX001 (ip), vehicle: saline 105 % of control | dose: 20.0 mg/kg/injection, schedule: Q01DX001 (ip), vehicle: saline 102 % of control | dose: 40.0 mg/kg/injection, schedule: Q01DX001 (ip), vehicle: saline 103 % of control | dose: 80.0 mg/kg/injection, schedule: Q01DX001 (ip), vehicle: saline 102 % of control

CC(=O)[O][Pb]([c]1ccccc1)([c]1ccccc1)[c]1ccccc1
inactive: dose: 0.5 mg/kg/injection, schedule: Q01DX015 (ip), vehicle: carboxymethylcellulose (CMC) 112 % of control | dose: 1.0 mg/kg/injection, schedule: Q01DX015 (ip), vehicle: carboxymethylcellulose (CMC) 90 % of control | dose: 2.0 mg/kg/injection, schedule: Q01DX015 (ip), vehicle: carboxymethylcellulose (CMC) 87 % of control | dose: 4.0 mg/kg/injection, schedule: Q01DX015 (ip), vehicle: carboxymethylcellulose (CMC) 96 % of control

C=CCOCC(O)COP(=O)(O)O (centres undefined)
inactive: dose: 50.0 mg/kg/injection, schedule: Q01DX001 (ip), vehicle: saline 113 % of control | [7] 103 % of control | [8] 107 % of control | [9] 109 % of control

CCCC1(CCC)CN(C)C1=O
inactive: dose: 12.5 mg/kg/injection, schedule: Q01DX009 (ip), vehicle: saline 97 % of control | dose: 25.0 mg/kg/injection, schedule: Q01DX009 (ip), vehicle: saline 88 % of control | dose: 25.0 mg/kg/injection, schedule: Q04DX003 (ip), vehicle: saline 104 % of control | [16] 100 % of control | dose: 50.0 mg/kg/injection, schedule: Q04DX003 (ip), vehicle: saline 98 % of control | [10] 102 % of control | [4] 98 % of control | [11] 102 % of control | [5] 98 % of control

CCCC[n+]1ccc(C#N)cc1
inactive: [17] 103 % of control | [18] 95 % of control

CN(Nc1c([N+](=O)[O-])cc([N+](=O)[O-])cc1[N+](=O)[O-])c1ccc2ccccc2c1
inactive: dose: 50.0 mg/kg/injection, schedule: Q01DX009 (ip), vehicle: Klucel (hydroxypropylcellulose) (HPC) 103 % of control | [13] 95 % of control | [1] 95 % of control | [14] 95 % of control | [2] 92 % of control | [15] 98 % of control | [3] 95 % of control
